We go through 28 molecules from ChEMBL document CHEMBL1201862, “PubChem BioAssay data set” (2004).

Calls of active or inactive are those of the source.

Targets include Cytochrome P450 3A4 (Homo sapiens, UniProt P08684); Cytochrome P450 2C9 (Homo sapiens, UniProt P11712); Cytochrome P450 2D6 (Homo sapiens, UniProt P10635).
The target in a further data set is Cytochrome P450 2C19 (Homo sapiens, UniProt P33261). The data set is described as follows: Cytochrome panel assay with activity outcomes. Panel member name: p450-cyp2c19 Compounds with AC50 equal or less than 10 uM are considered active. Type of data set: functional. The settings on record: read-out: AC50.
Another data set concerns Vero. The data set is described as follows: cells. Type of data set: functional. The settings on record: Chlorocebus sabaeus.
Data set [1] can be described thus: Luminescence Cell-Based Dose Response HTS to Identify Inhibitors of 5'UTR Stem-Loop Driven Prion Protein mRNA Translation in H4 Neuroglioblastoma Cells. [Related pubchem assays: 1827 (Project Summary), 1813 (Primary HTS)]. Type of data set: functional.
Data set [2] relates to BJ. Description: cytotoxicity toward BJ-TERT-LT-ST fibroblasts, dose response, cell-based, RAS-independent, luminescence (AID 1935).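 Further: BJ fibroblasts immortalized with TERT plus LT and ST oncogenes.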 It is filed as functional. The settings on record: Homo sapiens.
Data set [3] can be described thus: cytotoxicity toward DRD oncogenic fibroblasts, dose response, cell-based, non-viral oncogenic, luminescence (AID 1934). Type of data set: functional. The following applies: Homo sapiens.
Data set [4] is described as follows: inhibitors of firefly luciferase expression or activity, dose response, H4 neuroglioma cells, luminescence (AID 1990). It is filed as functional, cell-based.
In data set [5] the test system is BJ. The data set is described as follows: cells. It is filed as functional, cell-based. The following applies: Homo sapiens.
Data set [6] addresses FAD-linked sulfhydryl oxidase ALR (Homo sapiens, UniProt P55789). The data set is described as follows: inhibitors of human ALR sulfhydryl oxidase, dose response, biochemical, H2O2 detection, luminescence, cherry-pick (AID 493248).
The next data set has as its system H9c2. Description: cells. Type of data set: functional, cell-based. The following applies: Rattus norvegicus, H9c2, Myocardium.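 Further: confirmatory concentration-response retest of ultra-high-throughput screening hits for modulation of myocardial damage; cell death induced by hydrogen peroxide oxidative stress; compound pretreatment for 60 min then peroxide exposure for 2 h; potency is for protecting the cells against peroxide damage rather than for killing them.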
For a further data set, the target named is Large T antigen (Simian virus 40, UniProt P03070). It is filed as functional, Betapolyomavirus macacae.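 Further: Confirmatory-stage PubChem screen for compounds that inhibit SV40 T antigen.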
The nature of data set [7]: Luminescence Cell-Based Dose Confirmation HTS to Identify Inhibitors of Platelet Dense Granule Release. [Related pubchem assays: 1663 (Primary HTS), 1678 (Summary of Project)]. It is filed as functional.
Data set [8] has as its target Luciferin 4-monooxygenase (Photinus pyralis, UniProt P08659). Description: firefly luciferase enzyme inhibitors, dose response, biochemical, luminescence (AID 1891).
For data set [9], the system named is BJ. Description: cytotoxicity toward BJ-TERT fibroblasts, dose response, cell-based, RAS-independent, luminescence (AID 1933). Type of data set: functional. The settings on record: Homo sapiens.
The next data set has as its target T1, Streptokinase A (Streptococcus pyogenes serotype M1, UniProt P10520).
T1 sequence (P10520 whole entry): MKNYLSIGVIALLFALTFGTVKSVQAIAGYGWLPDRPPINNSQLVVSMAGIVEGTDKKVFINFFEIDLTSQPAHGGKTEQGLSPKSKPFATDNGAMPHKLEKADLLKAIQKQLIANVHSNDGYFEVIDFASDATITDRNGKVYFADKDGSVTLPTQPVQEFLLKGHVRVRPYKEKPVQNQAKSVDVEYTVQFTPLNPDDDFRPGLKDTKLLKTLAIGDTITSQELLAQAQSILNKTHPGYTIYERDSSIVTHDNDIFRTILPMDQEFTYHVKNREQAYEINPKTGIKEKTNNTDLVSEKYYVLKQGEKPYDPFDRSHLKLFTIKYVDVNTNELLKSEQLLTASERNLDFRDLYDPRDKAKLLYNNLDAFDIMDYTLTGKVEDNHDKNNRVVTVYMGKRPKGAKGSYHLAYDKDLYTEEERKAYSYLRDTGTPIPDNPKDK
The data set is described as follows: S. pyogenes streptokinase expression inhibitors, potency, dose response, plasminogen activation absorbance, OD405 (AID 1914).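 Further: secreted streptokinase activity via plasminogen activation per viability signal from cell pellet.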 Type of data set: functional, Streptococcus pyogenes M1 GAS.

For a further data set, the system named is Streptococcus. The data set is described as follows: Group A Streptococcus viability loss, dose response, counter-screen for streptokinase expression inhibitor project, luminescence, BacTiterGlo (AID 1915).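 Further: potency for reduction of bacterial viability or growth.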 Type of data set: functional, organism-based. On the technique in general: Counterscreens check selectivity or assay interference.
Data set [10] relates to Streptococcus sp. 'group A'. The data set is described as follows: growth inhibition of control SK(-) GAS strain, dose response, counter-screen for streptokinase expression inhibitor project, luminescence, kanamycin, BacTiterGlo, confirmation (AID 1900). Type of data set: functional, organism-based.
Data set [11] concerns the target T2, Rac GTPase-activating protein 1 (Homo sapiens, UniProt Q9H0H5).
T2 sequence (Q9H0H5 whole entry): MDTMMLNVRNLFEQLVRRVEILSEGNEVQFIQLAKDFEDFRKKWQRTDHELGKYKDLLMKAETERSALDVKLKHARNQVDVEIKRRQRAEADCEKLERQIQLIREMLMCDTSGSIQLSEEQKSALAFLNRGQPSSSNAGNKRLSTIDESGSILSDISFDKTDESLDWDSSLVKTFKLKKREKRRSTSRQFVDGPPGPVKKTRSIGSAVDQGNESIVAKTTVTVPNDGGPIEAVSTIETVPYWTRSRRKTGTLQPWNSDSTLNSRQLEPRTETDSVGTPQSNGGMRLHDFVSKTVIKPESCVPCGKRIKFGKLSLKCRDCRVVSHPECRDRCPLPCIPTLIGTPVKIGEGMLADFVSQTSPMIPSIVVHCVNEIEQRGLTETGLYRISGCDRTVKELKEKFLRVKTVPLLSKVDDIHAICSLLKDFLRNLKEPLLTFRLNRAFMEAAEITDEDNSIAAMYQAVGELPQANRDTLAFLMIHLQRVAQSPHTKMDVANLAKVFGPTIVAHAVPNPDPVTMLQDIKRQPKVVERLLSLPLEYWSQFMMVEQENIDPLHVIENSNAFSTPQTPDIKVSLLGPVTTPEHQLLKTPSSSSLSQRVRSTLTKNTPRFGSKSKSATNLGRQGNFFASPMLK
Description: MgcRacGAP GTPase-activating activity inhibitors, confirmation, biochemical, ADP Hunter fluorescence, primary and confirmatory (AID 624330). It is filed as functional.

A short description of data set [12]: cytotoxicity toward NIH3T3 fibroblasts, dose response, counter-screen, cell-based, ATP luminescence, mouse fibroblasts (AID 2010).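 Further: cells exposed to compound for about 90 hours before reading.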 It is filed as functional.
Data set [13] can be described thus: inhibitors of intracellular T. cruzi replication, confirmation, NIH3T3 host cells, beta-gal luminescence (AID 2044).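 Further: intracellular parasites grown in NIH/3T3 mouse fibroblasts as host cells; luminescent beta-galactosidase reporter signal from transgenic T. cruzi replicating inside host cells; inhibitors lower the luminescence signal.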 It is filed as functional, cell-based.
Data set [14] can be described thus: NIH-3T3 fibroblast cytotoxicity, dose response, cytotoxicity control, cell-based, fluorescence, Alamar Blue, secondary assay (AID 2327).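 Further: NIH-3T3 mouse fibroblasts cultured with fluconazole at 8 µg/mL.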 Type of data set: functional.

Cytochrome P450 2D6, sequence (P10635 whole entry): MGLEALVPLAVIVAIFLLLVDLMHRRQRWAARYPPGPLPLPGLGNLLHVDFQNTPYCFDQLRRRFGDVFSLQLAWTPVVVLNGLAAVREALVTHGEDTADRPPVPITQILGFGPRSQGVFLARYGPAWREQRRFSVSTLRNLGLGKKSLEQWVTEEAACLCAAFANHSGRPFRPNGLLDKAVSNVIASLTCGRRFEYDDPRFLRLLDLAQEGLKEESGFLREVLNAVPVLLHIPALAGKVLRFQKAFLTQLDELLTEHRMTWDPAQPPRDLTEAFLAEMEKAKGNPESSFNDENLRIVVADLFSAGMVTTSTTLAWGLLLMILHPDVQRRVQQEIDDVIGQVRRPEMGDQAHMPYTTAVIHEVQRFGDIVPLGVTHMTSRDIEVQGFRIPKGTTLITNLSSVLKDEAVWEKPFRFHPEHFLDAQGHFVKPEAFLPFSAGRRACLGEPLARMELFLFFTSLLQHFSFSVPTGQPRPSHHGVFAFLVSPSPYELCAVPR
Cytochrome P450 2C19, sequence (P33261 whole entry): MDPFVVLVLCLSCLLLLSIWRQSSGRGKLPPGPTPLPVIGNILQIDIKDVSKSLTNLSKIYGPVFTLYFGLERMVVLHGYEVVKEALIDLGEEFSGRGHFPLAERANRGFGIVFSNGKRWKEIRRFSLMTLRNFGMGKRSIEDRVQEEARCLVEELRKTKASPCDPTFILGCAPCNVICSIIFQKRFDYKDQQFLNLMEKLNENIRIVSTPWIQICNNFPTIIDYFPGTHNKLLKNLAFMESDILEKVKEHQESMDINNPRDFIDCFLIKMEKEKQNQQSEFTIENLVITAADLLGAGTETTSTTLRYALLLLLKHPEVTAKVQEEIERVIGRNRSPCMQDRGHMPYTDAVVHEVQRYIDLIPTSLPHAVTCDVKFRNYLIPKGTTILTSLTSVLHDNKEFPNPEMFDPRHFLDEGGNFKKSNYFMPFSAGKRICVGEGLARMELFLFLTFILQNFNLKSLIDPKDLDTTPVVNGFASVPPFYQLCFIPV
FAD-linked sulfhydryl oxidase ALR, sequence (P55789 whole entry): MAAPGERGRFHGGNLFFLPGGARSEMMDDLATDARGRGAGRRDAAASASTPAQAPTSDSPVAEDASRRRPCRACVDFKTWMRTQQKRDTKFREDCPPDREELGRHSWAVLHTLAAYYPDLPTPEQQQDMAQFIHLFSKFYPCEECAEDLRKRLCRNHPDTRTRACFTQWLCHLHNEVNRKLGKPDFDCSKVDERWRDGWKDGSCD
Cytochrome P450 2C9, sequence (P11712 whole entry): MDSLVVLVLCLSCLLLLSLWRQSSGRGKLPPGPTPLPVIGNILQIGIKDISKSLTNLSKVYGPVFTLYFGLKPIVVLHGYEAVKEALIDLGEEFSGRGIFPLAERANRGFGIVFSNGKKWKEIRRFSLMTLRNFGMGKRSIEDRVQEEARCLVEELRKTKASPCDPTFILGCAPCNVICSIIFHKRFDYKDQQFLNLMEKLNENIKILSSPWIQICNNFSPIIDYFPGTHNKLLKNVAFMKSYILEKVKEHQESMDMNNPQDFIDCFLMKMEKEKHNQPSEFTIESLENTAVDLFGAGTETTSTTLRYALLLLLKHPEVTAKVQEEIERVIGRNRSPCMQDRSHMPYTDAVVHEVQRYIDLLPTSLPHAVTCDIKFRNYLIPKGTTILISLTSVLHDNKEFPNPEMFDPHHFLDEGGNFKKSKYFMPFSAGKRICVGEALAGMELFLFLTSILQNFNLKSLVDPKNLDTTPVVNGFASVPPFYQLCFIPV
Cytochrome P450 3A4, sequence (P08684 whole entry): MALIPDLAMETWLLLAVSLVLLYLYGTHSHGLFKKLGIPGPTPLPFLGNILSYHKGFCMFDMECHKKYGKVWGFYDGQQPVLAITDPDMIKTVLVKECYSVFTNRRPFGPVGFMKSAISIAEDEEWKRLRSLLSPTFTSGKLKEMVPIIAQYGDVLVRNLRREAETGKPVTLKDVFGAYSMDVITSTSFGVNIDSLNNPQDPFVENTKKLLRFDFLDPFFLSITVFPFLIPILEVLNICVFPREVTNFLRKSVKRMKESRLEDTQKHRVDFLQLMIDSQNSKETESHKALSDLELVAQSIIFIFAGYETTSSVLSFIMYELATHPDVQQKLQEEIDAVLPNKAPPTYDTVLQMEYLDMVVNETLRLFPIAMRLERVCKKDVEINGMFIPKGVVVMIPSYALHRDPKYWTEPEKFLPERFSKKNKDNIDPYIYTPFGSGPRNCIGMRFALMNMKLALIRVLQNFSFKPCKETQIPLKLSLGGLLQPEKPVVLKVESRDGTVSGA
Large T antigen, sequence (P03070 whole entry): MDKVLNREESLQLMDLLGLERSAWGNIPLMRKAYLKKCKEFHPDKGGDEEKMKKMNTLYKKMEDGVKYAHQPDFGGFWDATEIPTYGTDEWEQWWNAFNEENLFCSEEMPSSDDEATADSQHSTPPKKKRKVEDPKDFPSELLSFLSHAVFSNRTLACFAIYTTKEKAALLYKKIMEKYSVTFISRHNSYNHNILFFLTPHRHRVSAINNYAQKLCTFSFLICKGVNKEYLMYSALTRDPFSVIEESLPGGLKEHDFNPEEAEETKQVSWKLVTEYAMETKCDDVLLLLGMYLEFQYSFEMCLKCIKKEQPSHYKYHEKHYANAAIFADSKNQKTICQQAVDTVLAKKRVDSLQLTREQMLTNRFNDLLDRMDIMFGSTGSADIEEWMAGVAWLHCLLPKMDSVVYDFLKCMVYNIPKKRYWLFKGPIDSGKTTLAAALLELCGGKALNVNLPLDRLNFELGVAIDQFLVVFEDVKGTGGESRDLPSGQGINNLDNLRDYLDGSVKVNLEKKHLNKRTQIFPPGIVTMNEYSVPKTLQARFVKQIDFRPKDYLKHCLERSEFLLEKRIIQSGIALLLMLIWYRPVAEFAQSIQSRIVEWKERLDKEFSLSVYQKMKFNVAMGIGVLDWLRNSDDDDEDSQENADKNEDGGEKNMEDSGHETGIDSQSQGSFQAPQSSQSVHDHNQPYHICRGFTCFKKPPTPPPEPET
Luciferin 4-monooxygenase, sequence (P08659 whole entry): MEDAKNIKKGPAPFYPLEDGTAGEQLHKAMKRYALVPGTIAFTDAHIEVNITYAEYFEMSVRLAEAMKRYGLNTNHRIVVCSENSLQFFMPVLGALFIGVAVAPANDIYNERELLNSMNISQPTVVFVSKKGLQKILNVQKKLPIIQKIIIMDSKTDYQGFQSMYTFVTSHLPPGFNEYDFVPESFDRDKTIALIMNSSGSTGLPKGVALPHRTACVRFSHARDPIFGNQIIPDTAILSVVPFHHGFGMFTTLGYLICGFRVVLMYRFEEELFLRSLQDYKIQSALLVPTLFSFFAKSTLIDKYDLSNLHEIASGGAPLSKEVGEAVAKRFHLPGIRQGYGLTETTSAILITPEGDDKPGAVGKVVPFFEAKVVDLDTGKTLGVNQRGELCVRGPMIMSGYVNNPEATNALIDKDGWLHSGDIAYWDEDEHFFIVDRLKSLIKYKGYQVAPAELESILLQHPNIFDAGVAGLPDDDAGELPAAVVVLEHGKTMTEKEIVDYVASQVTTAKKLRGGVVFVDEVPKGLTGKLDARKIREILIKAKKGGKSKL

Usually AC50 stands for the concentration at which the activity in the assay is half-maximal. For `Cn1c2ccccc2c2cc(C(=O)N3CCOCC3)sc21`, the values for the concentration at half-maximal activity (AC50) at Cytochrome P450 2C19, on Cytochrome P450 3A4 and at Cytochrome P450 2C9 were 39.8 µM (inconclusive), 28.2 µM (inconclusive) and “inconclusive”, respectively.
One may read the CC50 as the concentration giving 50% cytotoxicity. The term EC50 denotes the concentration at which the effect is half-maximal. Regarding `O=C(N/N=C/c1ccc(Cl)cc1)c1[nH]nc2c1CCCC2`, the CC50 with Vero is 2.59 µM (active). The half-maximal effective concentration (EC50) in data set [1] was > 120 µM (not active); in the data set with BJ [2] it was 0.669 µM (active); in data set [3], 0.657 µM (active); in data set [4], 8.55 µM (inconclusive); in the data set with BJ [5] it was 39.2 µM (active).
In the case of `Cc1cc(Oc2ncccc2[N+](=O)[O-])c2cc(Cl)ccc2n1`, the AC50 in data set [6] was 0.409 µM (active).
By IC50 is commonly meant the concentration needed to halve the response being measured. As to `Cc1ccc(OCCOC(=O)CCc2nc(O)c3ccccc3n2)cc1`, the half-inhibitory concentration (IC50) in the data set with H9c2 is 10.6 µM (active).
On the same count and under the same terms, with `Oc1nc(N2CCN(c3ccccc3)CC2)nc2c1CCCC2` the figure was > 79 µM (inactive).
Consider `O=S(=O)(c1ccccc1)N1CCC2(CC1)CN(c1ccncc1)C2`, for which the concentration at half-maximal activity (AC50) is 39.8 µM (inconclusive) on Cytochrome P450 3A4 and “inconclusive” on Cytochrome P450 2C9.
In the case of `O=[N+]([O-])c1ccc(Cl)c(/C=N/N2CCN(Cc3ccccc3)CC2)c1`, the figures for the concentration at half-maximal activity (AC50) at Cytochrome P450 2D6 and at Cytochrome P450 2C9 were 11.2 µM (inconclusive) and “inconclusive”, respectively.
Regarding `COc1cccc(NC(=O)c2oc3ccc(S(=O)(=O)N4CCOCC4)cc3c2C)c1`, in the data set on H9c2, the IC50 is > 79 µM (inactive).
Consider `COc1cc(/C=N/Nc2nc3ccccc3o2)cc(OC)c1O`, for which the concentration at half-maximal activity (AC50) in data set [6] is 0.025 µM (active). For the same molecule, the 50% inhibitory concentration (IC50) at Large T antigen is 8.87 µM (active).
On to `COc1cc(/C=C(\C#N)c2nc3c(s2)CC(C)CC3)ccc1O` (configuration not stated), for which the AC50 was 28.2 µM (inconclusive) on Cytochrome P450 2D6, 39.8 µM (inconclusive) on Cytochrome P450 2C19 and “inconclusive” at Cytochrome P450 2C9.
Regarding `Nc1cc2sc(-c3ccc(C(=O)O)cc3)nc2cc1Cl`, the EC50 in data set [7] was 1.32 µM (active); in data set [8], 0.441 µM (active); in the data set on BJ [9], 20.4 µM (active); in the data set on BJ [2], > 150 µM (inconclusive); in [3], 15.4 µM (active); in the data set on BJ [5] it was 17 µM (active).
`OC1CCN(c2c3c(nc4cc(-c5cccc(F)c5)nn24)CCCC3)CC1`: in the data set on H9c2, the IC50 was > 79 µM (inactive).
For the molecule `O=C(NN/C=C1\C(=O)N(c2ccccc2Cl)C(=O)c2ccccc21)C1COc2ccccc2O1` (configuration not stated), the concentration for a half-maximal effect (EC50) is > 150 µM (not active) at Streptokinase A, 7.4 µM (active) in the data set with Streptococcus and 6.64 µM (active) in [10]. Moreover, in the data set on H9c2, the IC50 was 17.2 µM (active).
`COc1ccc(NCc2cc3ccccc3nc2O)cc1`: the IC50 with H9c2 is > 79 µM (inactive); in data set [11], 94.7 µM (active).
Regarding `CNc1nc(N)c(C(=O)C(C)(C)C)s1`, the AC50 in data set [6] is 4.57 µM (active).
As for `CCCCCCCCCCCCCCCC(=O)NC[C@@H](COP(=O)([O-])OCC[N+](C)(C)C)OCC`, the AC50 is 31.6 µM (inconclusive) at Cytochrome P450 2D6, 39.8 µM (inconclusive) on Cytochrome P450 2C19 and “inconclusive” at Cytochrome P450 2C9.
`CCOC(=O)c1oc2ccc(S(=O)(=O)n3nc(-c4ccc(Cl)cc4)cc3N)cc2c1C`: in the data set on Vero, the CC50 was > 25 µM (active).
Consider `C/C(=N\Nc1cccc(Cl)c1)c1ccncc1`, for which the AC50 in data set [6] was 0.536 µM (active). Further, the EC50 in data set [12] is > 60 µM (not active); in [13], 1.42 µM (active).
As for `CC(OC(=O)c1cc(-c2cccnc2)nc2ccccc12)C(=O)Nc1ccc2ccccc2c1` (configuration not stated), the IC50 with H9c2 was > 79 µM (inactive).
As for `Cc1ccc2c(c1)CCCN2CC(=O)N(C)c1c(N)n(Cc2ccccc2)c(=O)[nH]c1=O`, the AC50 in data set [6] is 20 µM (active).
As for `COc1cc(OC)cc(C(=O)Nc2ccc(N3CCN(C(=O)c4cccs4)CC3)cc2)c1`, the EC50 in the data set with BJ [9] is 14.9 µM (active); in the data set on BJ [2], > 150 µM (inconclusive); in data set [3], 19.5 µM (active); with BJ [5], 61.2 µM (active).
On to `CN(C)c1ccc(C2N(c3ccc(F)cc3)C(=O)C3CCCN32)cc1` (configuration not stated), for which the concentration at half-maximal activity (AC50) in data set [6] was 49.4 µM (active).
As for `O=C(CC(C(=O)c1ccccc1)c1ccccc1)c1ccccc1` (configuration not stated), the IC50 with H9c2 is > 79 µM (inactive).
As to `COc1cccc(Oc2cnc(N)nc2-c2ccc(OC)cc2O)c1`, the EC50 is 17.9 µM (inconclusive) in the data set on BJ [9], 67.1 µM (active) in the data set with BJ [2], 10.9 µM (active) in data set [3] and 27.6 µM (active) in the data set on BJ [5].
Consider `Cc1ccn2c(NC3CCCC3)c(-c3ccncc3)nc2c1`, for which the AC50 in [6] is 1.45 µM (active). Also, in [11], the IC50 was 55.3 µM (active).
For `CCn1c2ccccc2c2nc3cc(OC)c(OC)cc3nc21`, the IC50 in the data set with H9c2 is > 79 µM (inactive).
With `COCCCNCCCCOc1c(Cl)cc(C)cc1Br.O=C(O)C(=O)O`, in data set [11], the concentration for half-maximal inhibition (IC50) was 64.1 µM (active). Besides, the AC50 result at Cytochrome P450 2C9 is listed as “inconclusive”.
On to `O=C(CN1C(=O)CCC1=O)NNc1ccc2ccccc2c1`, for which the EC50 in data set [14] is 3.62 µM (active). In data set [6], the concentration at half-maximal activity (AC50) is 0.09 µM (active).
